Experimental data reported in US20260125400A1, “TYK2 DEGRADERS AND USES THEREOF” (Kymera Therapeutics, Inc., priority 2023, published 2026).
Like-named read-outs stand apart in the source and are kept apart here.

Molecular target: T1, TYK2 (Homo sapiens, UniProt P29597)
T1 construct: Degradation of TYK2 in cells was quantitatively measured using Meso Scale Discovery (MSD) technology; endogenous in cells; host or cells: OCI-LY10
Assay: TYK2 MSD degradation in OCI-LY10 cells
Type: cell-based
Details: 4 to 24 hours incubation; for DC50: read-out: TYK2 MSD OCI-LY10 Rel-DC50
Method in brief: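 Cellular TYK2 levels were measured by Meso Scale Discovery sandwich detection in RIPA lysates of OCI-LY10 cells exposed 4 to 24 hours at 37° C to nine 1:3 compound doses starting at 1 to 10 μM final; dose-response fitted by four-parameter regression.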

[1] = TYK2 degradation in OCI-LY10 cells

T1 sequence (P29597 whole entry): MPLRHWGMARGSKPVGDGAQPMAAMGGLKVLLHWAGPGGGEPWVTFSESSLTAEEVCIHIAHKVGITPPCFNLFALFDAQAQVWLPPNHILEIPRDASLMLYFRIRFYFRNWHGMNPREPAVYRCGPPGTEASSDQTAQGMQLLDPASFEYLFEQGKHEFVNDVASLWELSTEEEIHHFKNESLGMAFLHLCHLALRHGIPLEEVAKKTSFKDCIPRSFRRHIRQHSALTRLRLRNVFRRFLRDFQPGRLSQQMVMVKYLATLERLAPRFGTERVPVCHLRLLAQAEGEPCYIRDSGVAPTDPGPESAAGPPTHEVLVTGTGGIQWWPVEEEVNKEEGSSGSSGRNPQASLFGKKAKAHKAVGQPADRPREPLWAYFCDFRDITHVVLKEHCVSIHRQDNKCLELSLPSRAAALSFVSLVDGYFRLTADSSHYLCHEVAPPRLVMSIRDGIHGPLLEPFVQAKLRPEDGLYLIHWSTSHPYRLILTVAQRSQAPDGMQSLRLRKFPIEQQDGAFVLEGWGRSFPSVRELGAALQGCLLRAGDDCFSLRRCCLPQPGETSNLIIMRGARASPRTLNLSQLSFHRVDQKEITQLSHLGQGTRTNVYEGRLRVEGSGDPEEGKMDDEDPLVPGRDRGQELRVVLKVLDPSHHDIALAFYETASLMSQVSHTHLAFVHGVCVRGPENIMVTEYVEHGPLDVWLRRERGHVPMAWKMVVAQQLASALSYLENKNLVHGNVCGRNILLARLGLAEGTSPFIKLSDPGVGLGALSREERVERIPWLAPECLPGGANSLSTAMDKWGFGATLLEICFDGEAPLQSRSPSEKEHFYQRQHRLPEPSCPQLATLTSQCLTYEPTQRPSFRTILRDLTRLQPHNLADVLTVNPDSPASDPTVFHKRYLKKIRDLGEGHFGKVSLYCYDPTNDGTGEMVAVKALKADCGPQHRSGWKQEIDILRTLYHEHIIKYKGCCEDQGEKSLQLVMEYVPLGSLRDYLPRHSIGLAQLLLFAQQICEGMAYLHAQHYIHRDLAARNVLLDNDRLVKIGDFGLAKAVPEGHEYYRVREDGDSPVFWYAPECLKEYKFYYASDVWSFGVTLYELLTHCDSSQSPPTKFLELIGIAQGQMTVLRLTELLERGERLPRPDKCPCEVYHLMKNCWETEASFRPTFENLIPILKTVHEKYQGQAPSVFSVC

Row | SMILES | TYK2 MSD OCI-LY10 Dmax % [1] | DC50 [1] | TYK2 MSD OCI-LY10 Dmax % (OCI-LY10 cells) | DC50 (OCI-LY10 cells)
1 | CNc1cc(N2CCc3c(-c4ccc(OC5CC6(CCN(C(=O)c7cc(C)c(Cl)c(N8CCC(=O)NC8=O)c7)CC6)C5)cn4)cccc32)nn2c(C(=O)N[C@@H]3C[C@@H]3F)cnc12 [I-1017] | B (B (90 to >75%)) | < 10 nM |  | 
2 | CNc1cc(-c2cn(CC3CCN(CCC4CCN(C(=O)c5ccc(Cl)c(N6CCC(=O)NC6=O)c5)CC4)CC3)c3ccccc23)nn2c(C(=O)N[C@@H]3C[C@@H]3F)cnc12 [I-771] |  |  | B (B (90 to >75%)) | < 10 nM
3 | CNc1cc(N2CCc3c(-c4ccc(CN5CC6(CCN(C(=O)c7ccc(C(F)F)c(N8CCC(=O)NC8=O)c7)CC6(F)F)C5)cn4)cccc32)nn2c(C(=O)N[C@@H]3C[C@@H]3F)cnc12 [I-977] | C (C (75 to 50%)) | < 10 nM |  | 
4 | CNc1cc(N2CCc3c(-c4ccc(CN5CC6(CCN(C(=O)c7cc(C)c(Cl)c(N8CCC(=O)NC8=O)c7)CC6(F)F)C5)c(C)n4)cccc32)nn2c(C(=O)N[C@@H]3C[C@@H]3F)cnc12 [I-966] | B (B (90 to >75%)) | < 10 nM |  | 
5 | CNc1cc(N2CCc3c(-c4ccc(CN5CC6(CCN(C(=O)c7cccc(N8CCC(=O)NC8=O)c7C)CC6)C5)cn4)cccc32)nn2c(C(=O)NC3CC3F)cnc12 (stereo not drawn) [I-309] | D (D (<50%)) | > 100 nM |  | 
6 | CNc1cc(N2CCc3c(N4CCN(C5CCN(C6CCN(C(=O)c7ccc(Cl)c(N8CCC(=O)NC8=O)c7)CC6)CC5)CC4)cccc32)nn2c(C(=O)N[C@@H]3C[C@@H]3F)cnc12 [I-287] | D (D (<50%)) | > 100 nM |  | 
7 | CNc1cc(N2CCc3c(CN4CC[C@H](N5CCC6(CCN(C(=O)c7ccc(Cl)c(N8CCC(=O)NC8=O)c7)CC6)CC5)C(F)(F)C4)cccc32)nn2c(C(=O)N[C@@H]3C[C@@H]3F)cnc12 [I-715] |  |  | B (B (90 to >75%)) | < 1 nM
8 | CNc1cc(N2CCc3c(CN4CCC(CN5CCN(C(=O)c6ccc(Cl)c(N7CCC(=O)NC7=O)c6)CC5)C(F)(F)C4)cccc32)nn2c(C(=O)N[C@@H]3C[C@@H]3F)cnc12 (stereo partly drawn) [I-761] |  |  | B (B (90 to >75%)) | < 10 nM
9 | CNc1cc(N2CCc3c(CC4CCC5(CC4)CCN(C4CCN(C(=O)c6ccc(Cl)c(N7CCC(=O)NC7=O)c6)CC4(F)F)CC5)cccc32)nn2c(C(=O)N[C@@H]3C[C@@H]3F)cnc12 (stereo partly drawn) [I-800] | D (D (<50%)) | > 100 nM |  | 
10 | CNc1cc(N2CCc3c(-c4ccc(CN5CCC6(CCN(Cc7ccc(Cl)c(N8CCC(=O)NC8=O)c7)CC6)C(F)(F)C5)cn4)cccc32)nn2c(C(=O)N[C@@H]3C[C@@H]3F)cnc12 [I-289] | D (D (<50%)) | > 100 nM |  | 
11 | CNc1cc(N2CCc3c(CN4CCC(N5CC(CN6CCN(c7ccc8c(c7)n(C)c(=O)n8C7CCC(=O)NC7=O)CC6)C5)C(F)(F)C4)cccc32)nn2c(C(=O)N[C@@H]3C[C@@H]3F)cnc12 (stereo partly drawn) [I-468] |  |  | B (B (90 to >75%)) | < 1 nM
12 | CNc1cc(N2CCc3c(N4CCC(CN5CCC6(CC5)CCN(c5ccc(Cl)c(C7CCC(=O)NC7=O)c5)CC6)CC4)cccc32)nn2c(C(=O)N[C@@H]3C[C@@H]3F)cnc12 (stereo partly drawn) [I-513] |  |  | D (D (<50%)) | 10 to 100 nM
13 | CNc1cc(N2CCc3c(-c4ccc(CN5CC6(CCC(=Cc7ccc(Cl)c(N8CCC(=O)NC8=O)c7)CC6)C5)cn4)cccc32)nn2c(C(=O)N[C@@H]3C[C@@H]3F)cnc12 [I-884] | C (C (75 to 50%)) | 10 to 100 nM |  | 
14 | CNc1cc(N2CCc3c(-c4ccc(CN5CC6(CCN(C(=O)c7cnc(OC)c(N8CCC(=O)NC8=O)c7)CC6)C5)cn4)cccc32)nn2c(C(=O)N[C@@H]3C[C@@H]3F)cnc12 [I-352] | B (B (90 to >75%)) | < 1 nM |  | 
15 | CNc1cc(N2CCc3c(-c4ccc(CN5CCC(N6CCC(COc7ccc(Cl)c(N8CCC(=O)NC8=O)c7)CC6)CC5)cn4)cccc32)nn2c(C(=O)NC3CCC3OC)cnc12 (stereo not drawn) [I-1006] | B (B (90 to >75%)) | < 10 nM |  | 
16 | CNc1cc(N2CCc3c(CN4CCC(N5CCN(C(=O)c6ccc(Cl)c(N7CCC(=O)NC7=O)c6)CC5)C(F)(F)C4)cccc32)nn2c(C(=O)N[C@@H]3C[C@@H]3F)cnc12 (stereo partly drawn) [I-890] | B (B (90 to >75%)) | < 10 nM |  | 
17 | CNc1cc(N2CCc3c(N4CC(CN5CCC(N6CCN(C(=O)c7ccc(Cl)c(N8CCC(=O)NC8=O)c7)CC6)C(F)(F)C5)C4)cccc32)nn2c(C(=O)N[C@@H]3C[C@@H]3F)cnc12 (stereo partly drawn) [I-781] |  |  | D (D (<50%)) | > 100 nM
18 | CNc1cc(N2CCc3c(-c4ccc(CN5CCC6(CC5)CCN(Cc5ccc(Cl)c(N7CCC(=O)NC7=O)c5)CC6)cn4)cccc32)nn2c(C(=O)N[C@@H]3C[C@@H]3F)cnc12 [I-95] | D (D (<50%)) | > 100 nM |  | 
